Key:
[1] = Cloud point of solfactants in various solutions; assay type: physicochemical; conditions: 1% in 10% NaCl
Description: Various 2-Ethyl Hexanol Glycerin Ether Ethoxylate solfactants were produced using ethoxylation by a KOH Catalyst.
Further the cloud point data for the solfactants in various solutions is shown. The cloud point temperatures show the temperature above which a surfactant-rich phase separates from an aqueous solution. There is a clear relationship between the cloud point and the average EO content of the glycerin ether ethoxylate; as the ethylene oxide content of the solfactant increases, the cloud point and water solubility increase. As the carbon number on the molecule increases, a greater number of moles of ethylene oxide are required to be added to the molecule to retain the same cloud point.

Gel formation with water = assay type: physicochemical
Description: The low foam profiles and low viscosity of the glycerin ether ethoxylate solfactants as shown in Examples 5 and 6 were further compared to gel curves of conventional ethoxylated alcohols (e.g. Tomadol surfactants). […]

[2] = Glewwe foam meter foam height test; assay type: physicochemical; conditions: 50 ppm
Description: Foam testing was completed for the ethoxylated glycerine ether solfactants in comparison to commercially-available ethoxylated alcohols using a Glewwe foam meter. A Glewwe foam meter provides a dynamic foam test rather than a static test, which is considered more appropriate for simulation of industrial conditions. The equipment and general procedure for the Glewwe form test is described in U.S. Pat. Nos. 3,899,387 and 5,447,648, which are herein incorporated by reference in its entirety. The foam meter itself consists of a thermostated reservoir and a pump to recirculate the aqueous medium with foaming tendencies. The foam developed by the action of the aqueous stream impinging on the surface in the reservoir causes foam formation.
The foam heights of the tested compositions were determined using the following method. First 3000 mL of city water (e.g. 17 gpg) was filled into the Glewwe cylinder. The pump was turned on, pressure adjusted to 6 psi, and heated water to 140° F. The commercially available surfactant (or the solfactant according to the invention) was added at 50 ppm in the cylinder and the timer was started. Foam height was recorded at 1 minute and 5 minutes. After 5 minutes the pump was stopped and foam stability characteristics were observed. The cylinder was then drained, rinsed, and the methods repeated.

[3] = Tergotometer detergency test on EMPA soiled swatches
Method: Laundry detergent compositions using 500 ppm sodium hydroxide (e.g. caustic) and the indicated conventional Surfonic® surfactant or the glycerin ether ethoxylate solfactant according to the invention were evaluated. A tergotometer test procedure was employed to measure detergency of test compositions according to the invention. A tergotometer along with 500 mL pots and water bath were employed. First, unwashed swatches from the lot numbers to be used in the test are read on the Konica Minolta Spectrophotometer model CM-3600d to establish the average initial (before washing) L value. A sampling of each swatch type is used. The desired wash temperature is programmed into the Tergotometer and its water bath is allowed to heat up to that temperature. 500 mL of the desired water type is added to each Tergotometer pot and allowed to equilibrate to the desired temperature.
The following standard, commercially available (EMPA) soiled swatches were used for baseline testing in the Examples, as shown in Table 9.
The test detergent compositions are weighed out and added to the Tergotometer pots. Various detergent compositions as shown in Tables 10-11 were employed under varying water conditions, including 5 grain water (Table 10) and 17 grain water (Table 11).
The detergent systems were agitated for 10 minutes to mix and dissolve in the water sources. The agitation/mixing speed RPM was adjusted to 200. The temperature of the detergent compositions dissolved in water was 60° C., unless indicated otherwise in the Figures/Examples set forth below. The swatches are added quickly to their respective pots in a left to right sequence in order to minimize differences in exposure time to the detergent systems. A wash run is completed for at least 10 minutes. At the end of the run, the swatches are removed from the pots quickly in a left to right sequence using a forceps and are transferred into 500 mL-1 liter of cool water to rinse. After rinsing with cold tap water, excess water from the swatches was removed by squeezing the swatches. The process was repeated with rinsing and squeezing excess water at least 2 more times. The swatches were air dried on a visa napkin or paper towel on the lab bench.
The swatches were then read on the HunterLab Color Quest and calculate % soil removal (i.e. whiteness) from the difference between the initial (before washing) L value and the final L value (after washing). Percent Soil Removal=(L after−L initial)/(96−L initial)*100 is represented as L*.

[4] = Differential Scanning calorimetry (DSC) freeze or melt point; assay type: physicochemical
Method: Differential Scanning calorimetry (DSC) was run on the various 2-Ethyl Hexanol Glycerin Ether Ethoxylate solfactants set forth in Table 1. The DSC evaluated additional properties of the exemplary set of novel solfactants, namely the freezing point of the molecules. The DSC utilized can be measured down to minus 80° C. for determining a freeze or melt points of a liquid. […] This is distinct form conventional alcohol ethoxylates (having equivalent degrees of ethoxylation) which have very high melt points. For example, many conventional alcohol ethoxylate surfactants have melt points at room temperature or higher, resulting in the compositions being solids at room temperature. In addition, as one skilled in the art ascertains, the more ethyl oxide you add to a standard alcohol ethoxylate, the higher the melt point. This is distinct from the solfactants according to the invention, including the 2-Ethyl Hexanol Glycerin Ether Ethoxylate solfactants set forth in Table 1. For example, Tomadol 24-9 is a solid at room temperature, whereas the equivalent 2EHGE 9 mole is a liquid at room temperature.

2-Ethyl Hexanol Glycerin Ether Ethoxylate (9 moles) [2EHGE (9 EO)]
Cloud Point Data 1% in 10% NaCl [1]: 95 °C | Gel Formation (Gel formation with water; 20%/80%): None | Gel Formation (Gel formation with water; 30%/70%): None | Gel Formation (Gel formation with water; 40%/60%): None | Gel Formation (Gel formation with water; 50%/50%): None | Gel Formation (Gel formation with water; 60%/40%): None | Gel Formation (Gel formation with water; 70%/30%): None | Gel Formation (Gel formation with water; 80%/20%): None | Gel Formation (Gel formation with water; 90%/10%): None | Gel Formation (Gel formation with water; Glycerin Ether Ethoxylate %/Water % 10%/90%): None | OBSERVATIONS (foam stability after pump stopped) ([2]; after 5 minutes pump stopped): Unstable - Breaks | Foam Height (in) @ 1 MIN ([2]; city water 17 gpg, 140° F., 6 psi, 1 minute): 4.5 in | Foam Height (in) @ 5 MIN ([2]; city water 17 gpg, 140° F., 6 psi, 5 minutes): 4.5 in | % removal EMPA 116 ([3]; 5 gpg water, 50 ppm, 500 ppm sodium hydroxide, 60° C., EMPA 116 (Blood, milk and ink, Cotton)): 33% | % removal EMPA 101 ([3]; 5 gpg, 50 ppm, EMPA 101 (olive oil/carbon black, Cotton)): 32% | % removal EMPA 104 ([3]; 5 gpg, 50 ppm, EMPA 104 (olive oil/carbon black, Cotton blend)): 38% | % removal EMPA 106 ([3]; 5 gpg, 50 ppm, EMPA 106 (mineral oil, Cotton)): 55.18% | % removal EMPA 111 ([3]; 5 gpg, 50 ppm, EMPA 111 (Pig blood, Cotton)): 48% | % removal EMPA 114 ([3]; 5 gpg, 50 ppm, EMPA 114 (Red wine, Cotton)): 2% | % removal EMPA 101 ([3]; 5 gpg, 100 ppm, EMPA 101): 29% | % removal EMPA 104 ([3]; 5 gpg, 100 ppm, EMPA 104): 24% | % removal EMPA 106 ([3]; 5 gpg, 100 ppm, EMPA 106): 50.14% | % removal EMPA 111 ([3]; 5 gpg, 100 ppm, EMPA 111): 54% | % removal EMPA 114 ([3]; 5 gpg, 100 ppm, EMPA 114): 0% | % removal EMPA 116 ([3]; 5 gpg, 100 ppm, EMPA 116): 25% | % removal EMPA 101 ([3]; 17 gpg, 50 ppm, EMPA 101): 21% | % removal EMPA 104 ([3]; 17 gpg, 50 ppm, EMPA 104): 19% | % removal EMPA 106 ([3]; 17 gpg, 50 ppm, EMPA 106): 9% | % removal EMPA 111 ([3]; 17 gpg, 50 ppm, EMPA 111): 35% | % removal EMPA 114 ([3]; 17 gpg, 50 ppm, EMPA 114): 1% | % removal EMPA 116 ([3]; 17 gpg, 50 ppm, EMPA 116): 21% | % removal EMPA 101 ([3]; 17 gpg, 100 ppm, EMPA 101): 20% | % removal EMPA 104 ([3]; 17 gpg, 100 ppm, EMPA 104): 16% | % removal EMPA 106 ([3]; 17 gpg, 100 ppm, EMPA 106): 10% | % removal EMPA 111 ([3]; 17 gpg, 100 ppm, EMPA 111): 32% | % removal EMPA 114 ([3]; 17 gpg, 100 ppm, EMPA 114): 1% | % removal EMPA 116 ([3]; 17 gpg, 100 ppm, EMPA 116): 20% | Physical state at room temperature [4]: liquid

From patent publication US10045529B2, “Quat cleaner with glycerin ether ethoxylates” (Ecolab USA Inc., priority 2012, dated 2018)
